Experimental data reported in patent US10744146B2, “Composition having effects of preventing or ameliorating conditions or diseases caused by brain hypofunction” (SUNTORY HOLDINGS LIMITED, priority 2001, dated 2020).

Tests used:
old male Fischer rats = experiment: Probe test after Morris water maze learning (time in quadrant where escape platform used to be); format: in vivo, rat; conditions: for time spent in the quadrant (¼) where the escape platform used to be, mean±standard deviation: old rats 21 months
Description: A Morris water maze learning test was conducted around the third month of the experiment (age of old rats: 21 months, age of young rats: 7 months). The Morris water maze test is a learning test based on spatial recognition in which water stained black with ink is filled (height of water level: 20 cm) into a water tank (diameter: 120 cm, height: 35 cm), a rat is placed on an escape platform of a size (diameter: 11.5 cm, height: 19 cm) that is just large enough for the rat to stand on (the escape platform is located beneath the surface of the water and cannot be seen by rats swimming in the water tank), the rat on which the learning test is to be performed is placed in the water tank at a predetermined location in the tank (starting point), and then forced to swim to the escape platform. This test is recognized to have a correlation with the hippocampus that governs memory, and is widely used in the US and Europe. As the test is repeated, the rats learn the location of the escape platform. The rats were allowed to learn using the method described below. Namely, after releasing a rat from the starting point of the Morris water maze test apparatus, if the rat was unable to reach the escape platform within 60 seconds, the rat was placed on the escape platform, thereby enabling it to learn the location of the unseen escape platform. This learning process was continued for 2 weeks no more than twice a day. The percentage of the amount of time required to swim from the starting point to the escape platform within an angular deviation range of ±15° to the total swimming time (Hit %, see FIG. 2) was used as an indicator of learning. […] In FIG. 3, each graduation on the scale of the horizontal axis represents four trials, or two days worth of testing.
Next, in order to determine the degree of learning acquisition, a probe test was conducted on the day after two weeks of the aforementioned learning, namely on day 15. If the escape platform is taken away after the rats have acquired learning, the rats swim around at the location where the escape platform used to be. The time during which the rats swim around at the former location of the escape platform based on the memory of where it used to be (evaluated by dividing the water tank into four quadrants and evaluated as the amount of time (seconds) spent in the quadrant where the escape platform used to be) can used to evaluate the degree of learning acquisition. The paths swam by the No. 1 and No. 2 rats of the YC group, OA group and OC group are shown (FIG. 4). Furthermore, as the rats were allowed to learn by changing the starting points for individual rats, the starting point (S) and quadrant where the escape platform used to be in FIG. 4 differ according to individual rats. […]

hippocampus LTP = conditions: 22-month-old rats, arachidonic acid diet 10 mg/rat/day for 8 weeks; versus 4-month-old young rats; cited from earlier work

| Compound | absorption (old male Fischer rats; Example 4, inferred from the probe test at the same ingested amount of arachidonic acid) | time spent in the quadrant (¼) where the escape platform used to be, mean±standard deviation (old male Fischer rats; Example 4, 40 mg arachidonic acid/rat/day, group OA 6 animals, group 8A8 8 animals) | degree of learning acquisition (old male Fischer rats; Example 4, old rats, comparison between TGA40S and 8A8 and with young rats) | time spent in the quadrant (¼) where the escape platform used to be, mean±standard deviation (old male Fischer rats; Example 5, arachidonic acid per rat per day: 8A8 diet 40 g (so in the source), 8A8-containing oil or fat diet 13.2 mg) | hippocampus LTP levels (hippocampus LTP) |
| --- | --- | --- | --- | --- | --- |
| CCCCC/C=C\C/C=C\C/C=C\C/C=C\CCCC(=O)OC(COC(=O)CCCCCCC)COC(=O)CCCCCCC [8A8, 1,3-capryloyl-2-arachidonoyl-glycerol] | more easily absorbed than TGA40S | 27.18 ± 5.10 s | tended to result in a higher degree of learning acquisition | 27.00 ± 4.65 s | – |
| CCCCC/C=C\C/C=C\C/C=C\C/C=C\CCCC(=O)O [arachidonic acid] | – | – | – | – | recovery to the level of young rats |
